System: glycogen synthase
Assay: Glycogen synthase activation in rat myotubes
Type: cell-based
Conditions: for EC50: Myotube; for Max FI (% to LiCl): maximum fold induction normalised to 40 mM LiCl
Procedure: Rat myotubes were differentiated from L6.G8.C5 myoblasts, which were grown in DMEM, 10% FCS and antibiotics until confluent. The medium was then removed, cells washed with PBS and differentiation medium containing minimal essential media eagles (alpha modified) supplemented with 2% FCS and antibiotics. The cells were cultured for 3-4 days until >90% of cells had formed multinucleated myotubes. The differentiated cells were then used for determination of glycogen synthase activation after treatment with GSK3 inhibitor example compounds.
HEK293 cells, mouse adipocytes or rat myotubes were treated in 10-cm Petri dishes with different concentrations of GSK3 inhibitor example compounds for 90 minutes. At the end of the treatment period the cells were washed and scraped in ice cold PBS buffer supplemented with 20 mM NaF. The cells were pelleted by centrifugation and lysed in 300 μL buffer (50 mM.HEPES pH 7.5, 10 mM EDTA, 100 mM NaF, 5 mM DTT, protease inhibitor cocktail (Sigma)). After incubation for 30 min on ice the samples were cleared by centrifugation. The activity of glycogen synthase was determined in the soluble fraction at two different concentrations of […]—low (0.1 mM) and high (10 mM). The reaction was carried out for 30 min (buffer: 50 mM Tris pH 7.8, 20 mM EDTA, 25 mM NaF, 5 mM DTT). The reaction mixture (total volume of 90 μL) contained 1% glycogen, 0.3 mM UDP-glucose and 0.06 μCi ^14C-UDP-glucose. Reaction was stopped by transfer of 70 μL to a GFC 96-well filter plate, containing 140 μL 100% ethanol and the glycogen was allowed to precipitate for 1 h at 4° C. The wells were washed 2 times with 200 μL 66% ethanol and than allowed to dry. Subsequently, 100 μL of scintillation liquid was added, and plates were sealed and counted in a Packard Topcounter. Glycogen synthase activation was calculated as the ratio between the incorporation of labelled ^14C-UDP-glucose in glycogen at low and high concentration of […] (fractional velocity).
The ability of GSK3 inhibitors to activate glycogen synthase was determined in HEK293 cells, mouse adipocytes and rat myotubed. The compounds tested activated glycogen synthase in all three cellular systems with EC50 values in the sub-micromolar to low micromolar concentration range. Most of them exceeded the stimulation induced by 40 mM LiCl (the highest compound concentration used in the assay was 20 μM).

Row | Compound | EC50 | Max FI (% to LiCl)
1 | CCNS(=O)(=O)c1cccc(Nc2nccc(-c3sc(=O)n(C)c3C)n2)c1 [Compound 62, 3-[4-(3,4-Dimethyl-2-oxo-2,3-dihydro-thiazol-5-yl)-pyrimidin-2-ylamino]-N-ethyl-benzenesulfonamide] | 1.61 ± 0.199 µM | 130 % to LiCl
2 | CC(=O)Nc1cc(Nc2nccc(-c3sc(=O)n(C)c3C)n2)cc(C(F)(F)F)c1 [Compound 64, N-{3-[4-(3,4-Dimethyl-2-oxo-2,3-dihydro-thiazol-5-yl)-pyrimidin-2-ylamino]-5-trifluoromethyl-phenyl}-acetamide] | 1.24 ± 0.61 µM | 152 % to LiCl
3 | COCCNS(=O)(=O)c1cccc(Nc2nccc(-c3sc(=O)n(C)c3C)n2)c1 [Compound 67, 3-[4-(3,4-Dimethyl-2-oxo-2,3-dihydro-thiazol-5-yl)-pyrimidin-2-ylamino]-N-(2-methoxy-ethyl)-benzenesulfonamide] | 10.5 ± 0.99 µM | 112 % to LiCl
4 | Cc1c(-c2ccnc(Nc3cccc(S(=O)(=O)NCCO)c3)n2)sc(=O)n1C [Compound 75, 3-[4-(3,4-Dimethyl-2-oxo-2,3-dihydro-thiazol-5-yl)-pyrimidin-2-ylamino]-N-(2-hydroxy-ethyl)-benzenesulfonamide] | 8.49 ± 2.48 µM | 157 % to LiCl
